Reference: patent US20160103142A1, “Blood-Platelet Test Method and Blood-Platelet Test Device” (FUJIMORI KOGYO CO., LTD., priority 2008, published 2016)

Legend:
platelets [1] = assay: Pressure increase in glass-surface microchip 2, citric acid-anticoagulated blood with ADP (Examples 8 to 10); assay type: ex vivo
Description: The first substrate 200 shown in FIG. 3A and the second substrate 210 shown in FIG. 3B were laminated with and bonded to each other, to provide the microchip 2 shown in FIG. 3C. In terms of the substrate 200, a substrate made of PDMS (Fluidware) was used, and the depth of all the channels was 120 μm; the channel width was 1 mm; the length of the comb was 1 mm; the width of the comb was 50 μm; and the groove width was 50 μm. In terms of the substrate 210, a slide glass was used, and penetrating holes corresponding to the inlet and the outlet were provided as in the substrate 110, but, unlike the substrate 110, collagen was not applied since the glass plays a role as a platelet-adhesive surface. […] The mineral oil was injected from the pump 209 into the microchip 2 at a flow rate of 20 μl/min., and the inflow pressure of the mineral oil was measured by a pressure sensor which is not shown. Pressure changes were measured by carrying out an experiment which was the same as that in Example 8 except that ADP (manufactured by Wako Pure Chemical Industries, Ltd.) was further added to the blood anticoagulated with citric acid in the reservoir 207 to a final concentration of […]. Pressure changes were measured by carrying out an experiment which was the same as that in Example 9 except that blood collected 3 hours after dosing with 75 mg clopidogrel (Sanofi-aventis) was used.

platelets [2] = conditions: subject D, blood collected 6 hours after oral 100 mg clopidogrel, 6 μl of 100 μM ADP in about 600 μl blood, 20 μl/min
Method: Two transparent substrates, that is, the first substrate 100 shown in FIG. 1(A) and the second substrate 110 shown in FIG. 1(B) (injection-molded products manufactured by Richell Corporation) were prepared. The side of the first substrate 100 wherein a groove corresponding to a capillary 101 opens and the side of the second substrate 110 having a platelet-adhesive surface 106 were bonded together such that these face to each other using a silane coupling agent and thermocompression bonding, to provide the microchip 1 shown in FIG. 1(C). In the first substrate 100, the length, depth and width of the channel (capillary) 101 were 20 mm, 50 μm and 2 mm, respectively. In terms of the channel dividing section 102, dividing walls 103 each having a length of 1.5 mm, width of 50 μm and height of 50 μm were placed at equal intervals of 50 μm, and this part was used as the channel dividing section. In the second substrate, each of the holes corresponding to the inlet and the outlet was a penetrating hole having a circular cross section and an inner diameter of 2 mm and a depth of 2 mm. At the position on the second substrate 110 which is overlapped with the channel dividing section 102 of the first substrate 100, about 10 μl of 3 mg/ml collagen type I (manufactured by Nitta Gelatin Inc.) was applied and dried under vacuum to provide a platelet-adhesive surface 106. […]

platelets [3] = assay: Pressure increase in collagen-coated microchip 1, citric acid-treated blood with arachidonic acid or collagen (Examples 16 to 18); assay type: ex vivo; conditions: subject G
Method: (§1) In the first substrate 100, the length, depth and width of the channel (capillary) 101 were 20 mm, 50 μm and 2 mm, respectively.
The experiments a to f in Example 16 were carried out for the subject G 6 hours after dosing with 100 mg of aspirin.
Using blood of the subject G collected 6 hours after dosing with 100 mg of aspirin, experiments were carried out in the same manner as in Examples 16d to f except that the collagen to be added was increased to 12 μl or 18 μl.

platelets [4] = assay: Camera images of platelet adherence in collagen-coated microchip 1 (Example 7); assay type: cell-based; conditions: ADP 0.025, 0.05, 0.1 μM in citric acid-treated blood, 8 μl/min, image after 1 minute
Method: as §1
A pump 109 was connected to the reservoir 107 via a tube, and the pressure exerted on the pump was measured with a pressure sensor which is not shown. In the reservoir 107, a cylindrical stirring bar 108 having a diameter of 2 mm and a length of 5 mm, which was prepared by coating an iron cylinder with PMEA, was contained. The stirring bar 108 was set such that it can be rotated at 60 to 180 rpm by the magnetic force of a stirrer 113 placed under the heater 115 which was heated to 37° C. An outlet duct 112 was connected to the outlet such that the blood after the analysis can be discharged. A camera 111 to which an image analyzer 114 was connected was placed above the channel dividing section 102 of the microchip 1, thereby allowing observation of the state of platelet activation in the channel dividing section 102.
An experiment was carried out using the microchip 1 and the system A in Example 1 for diagnosis by images. The pump 109 was filled with mineral oil, and the reservoir 107 was filled with blood anticoagulated with citric acid. The mineral oil was sent to the reservoir 107 using the pump 109 at a flow rate of 8 μl/min. to allow the blood to flow into the microchip 1. […]

platelets [5] = assay: Pressure increase in collagen-coated microchip 1, hirudin-anticoagulated blood with agent added (Examples 19 to 22); assay type: cell-based; conditions: flow rate 7 μl/min, ReoPro 0.4 or 0.8 μg/ml
Method: as §1
(a) Blood was collected from the subject D using a hirudin blood collection tube (Multiplate Services GmbH), and about 600 μl of the blood anticoagulated with hirudin was filled in the reservoir 207. The pump 209 was filled with mineral oil and connected to the reservoir 207, whose tip was further connected to the inlet 104 in the microchip 1.

Molecule: COC(=O)[C@H](c1ccccc1Cl)N1CCc2sccc2C1 [clopidogrel]
- ADP-induced pressure increase after administration of clopidogrel (platelets [1]; blood collected 3 hours after dosing with 75 mg clopidogrel, ADP 2 nM, 20 μl/min): the increase was suppressed
- pressure increase after administration of clopidogrel (platelets [2]): pressure increase delayed

Molecule: CC(=O)Oc1ccccc1C(=O)O [aspirin]
- pressure increase of blood collected after aspirin with increased collagen (platelets [3]; 6 hours after 100 mg aspirin, collagen increased to 12 μl or 18 μl, 20 μl/min (FIG. 19)): can also be made to cause pressure increase by increasing the collagen to be added
- anti-platelet effect of aspirin by pressure increase (platelets [3]; 6 hours after dosing with 100 mg aspirin, arachidonic acid or collagen added, 20, 10, 5 μl/min): anti-platelet effect of aspirin can be analyzed

Molecule: Nc1ncnc2c1ncn2[C@@H]1O[C@H](COP(=O)(O)OP(=O)(O)O)[C@@H](O)[C@H]1O [ADP, adenosine diphosphate]
- pressure increase in the pump on addition of ADP (platelets [1]; blood anticoagulated with citric acid, ADP final concentration 2 nM, flow rate 20 μl/min): caused pressure increase
- amount of platelets adhered to the comb portion (platelets [4]): increase in the amount of platelets adhered to the comb portion, which occurred in an ADP concentration-dependent manner

B1: ReoPro: ReoPro (Eli lilly), an antibody against the receptor GPIIb/IIIa on the platelet membrane (antibody, chains of the INN, looked up, V domains shown)
VH: EVQLQQSGTVLARPGASVKMSCEASGYTFTNYWMHWVKQRPGQGLEWIGAIYPGNSDTSYIQKFKGKAKLTAVTSTTSVYMELSSLTNEDSAVYYCTLYDGYYVFAYWGQGTLVTVSA
VL: EIVLTQSPVTLSVTPGDSVSLSCRASRDISNNLHWFQQTSHESPRLLIKYASQSMSGIPSRFSGSGSGTDFTLSINSVETEDFGMYFCQQTNSWPYTFGGGTKLEIK
modifications: Fab
notes: ReoPro (Eli lilly), an antibody against the receptor GPIIb/IIIa on the platelet membrane
- anti-platelet effect under low shear stress (platelets [5]): rather strong anti-platelet effect
